These are literature values, as cited in US12233147B2, “Method for treating keratin material” (Henkel AG & Co. KGaA, priority 2019, dated 2025).

For this series the following is noted: 25° C.
For the molecule `O=S(=O)([O-])c1ccc(N=Nc2c(O)ccc3ccccc23)cc1.[Na+]` [Acid Orange 7, sodium salt of 4-[(2-hydroxy-1-naphthyl)azo]benzene sulphonate], the solubility in water entry is on record as “more than 7 g/L”.
In the case of `Nc1cc(S(=O)(=O)[O-])cc2cc(S(=O)(=O)[O-])c(N=Nc3ccccc3)c(O)c12.[Na+].[Na+]` [Acid Red 33, diantrium salt of 5-amino-4-hydroxy-3-(phenylazo)-naphthalene-2,7-disulphonate], the solubility in water was 2500 µg/mL.
As to `O=C([O-])c1c(Cl)c(Cl)c(Cl)c(Cl)c1-c1c2c(Br)cc(=O)c(Br)c-2oc2c(Br)c(O)cc(Br)c12.O=C([O-])c1c(Cl)c(Cl)c(Cl)c(Cl)c1-c1c2c(Br)cc(=O)c(Br)c-2oc2c(Br)c(O)cc(Br)c12.[Na+].[Na+]` [Acid Red 92, disodium salt of 3,4,5,6-tetrachloro-2-(1,4,5,8-tetrabromo-6-hydroxy-3-oxoxanthen-9-yl)benzoic acid], the solubility in water entry is on record as “greater than 10 g/L”.
For `O=C([O-])C1=NN(c2ccc(S(=O)(=O)[O-])cc2)C(=O)C1N=Nc1ccc(S(=O)(=O)[O-])cc1.[Na+].[Na+].[Na+]` (stereo not shown) [Acid Yellow 23, trisodium salt of 4,5-dihydro-5-oxo-1-(4-sulfophenyl)-4-((4-sulfophenyl)azo)-1H-pyrazole-3-carboxylic acid], the “solubility in water” value is reported as “highly soluble in water”.
